# Literature values, collected in PMC7876056, “Population Pharmacokinetic Analysis of Yimitasvir in Chinese Healthy Volunteers and Patients With Chronic Hepatitis C Virus Infection” (Frontiers in Pharmacology, 2021).
# Like-named read-outs stand apart in the source and are kept apart here.
# Conditions: cited from earlier work; for Time-varying ALT as covariate on PK: healthy volunteers and HCV patients
# [1] = ref U.S. Food and Drug Administration, 2014
# [2] = ref U.S. Food and Drug Administration, 2016
smiles,measurement,setting,value
COC(=O)N[C@H](C(=O)N1CCC[C@H]1c1nc(-c2ccc(-c3ccc(-c4c[nH]c([C@@H]5CCCN5C(=O)[C@@H](NC(=O)OC)C(C)C)n4)cc3)cc2)c[nH]1)C(C)C [daclatasvir],Time-varying ALT as covariate on CL/F,"patient population only, ref Chan et al., 2017",significant covariate
same,Effect of time-varying ALT on AUCss,"ref Chan et al., 2017",small
same,Gender effect on CL/F,"ref Chan et al., 2017",lower CL/F values in females
COC(=O)N[C@H](C(=O)N1CC2(CC2)C[C@H]1c1ncc(-c2ccc3c(c2)C(F)(F)c2cc(-c4ccc5nc([C@@H]6[C@H]7CC[C@H](C7)N6C(=O)[C@@H](NC(=O)OC)C(C)C)[nH]c5c4)ccc2-3)[nH]1)C(C)C [ledipasvir],Time-varying ALT as covariate on PK,[1],not identified as a significant covariate
same,Effect of co-medication of sofosbuvir on PK profile,"ref German et al., 2016",not affected by co-medication of sofosbuvir
same,Gender effect on CL/F,[1],lower CL/F values in females
COC[C@H]1C[C@@H](c2ncc(-c3ccc4c(c3)COc3cc5c(ccc6nc([C@@H]7CC[C@H](C)N7C(=O)[C@@H](NC(=O)OC)C(C)C)[nH]c65)cc3-4)[nH]2)N(C(=O)[C@H](NC(=O)OC)c2ccccc2)C1 [velpatasvir],Time-varying ALT as covariate on PK,[2],not identified as a significant covariate
same,Effect of co-medication of sofosbuvir on PK profile,"ref Brieva et al., 2017",not affected by co-medication of sofosbuvir
same,Gender effect on CL/F,[2],lower CL/F values in females
